Laboratory results from patent US7297700B2, “Bicycloheteroaryl compounds as P2X7 modulators and uses thereof” (Renovis, Inc., priority 2005, dated 2007).

Tested on: IL-1β release from THP-1 cells
Test: IL-1β Release Assay (Alternate Method), THP-1 cells
Assay type: cell-based, human
Conditions: at 0.3 μM; THP-1 cells
How it was run: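 THP-1 cells differentiated 16 h with 100 ng/mL LPS plus 100 ng/mL IFN-γ, reprimed 2 h with 100 ng/mL LPS, pretreated 30 min with compound, then challenged 45 min with 250 uM BzATP (final). Supernatant IL-1β quantified by ELISA; percent inhibition from background-adjusted levels versus untreated cells.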

SMILES | IL-1β % inhibition
N#Cc1ccc(S(=O)(=O)N2CCc3c(ncnc3NC(=O)CC34CC5CC(CC(C5)C3)C4)C2)c(Cl)c1 [Compound 165] | +++ (compound exhibited 50-75% inhibition at 0.3 μM)
O=C(CC12CC3CC(CC(C3)C1)C2)Nc1ncnc2c1CCN(S(=O)(=O)c1ccccc1F)C2 [Compound 166] | ++ (compound exhibited 25-50% inhibition at 0.3 μM)
N#Cc1ccc(S(=O)(=O)N2CCc3c(ncnc3NC(=O)CC34CC5CC(CC(C5)C3)C4)C2)cc1 [Compound 167] | ++ (compound exhibited 25-50% inhibition at 0.3 μM)
O=C(CC12CC3CC(CC(C3)C1)C2)Nc1ncnc2c1CCN(S(=O)(=O)c1cccc(Cl)c1)C2 [Compound 168] | ++++ (compound exhibited 75% or greater inhibition at 0.3 μM)
Cc1noc(C)c1S(=O)(=O)N1CCc2c(ncnc2NC(=O)CC23CC4CC(CC(C4)C2)C3)C1 [Compound 169] | ++ (compound exhibited 25-50% inhibition at 0.3 μM)
O=C(CC12CC3CC(CC(C3)C1)C2)Nc1ncnc2c1CCN(S(=O)(=O)c1ccc(Oc3ccccn3)cc1)C2 [Compound 172] | +++ (compound exhibited 50-75% inhibition at 0.3 μM)
O=C(CC12CC3CC(CC(C3)C1)C2)Nc1ncnc2c1CCN(S(=O)(=O)c1ccc(Oc3cccnc3)cc1)C2 [Compound 174] | ++++ (compound exhibited 75% or greater inhibition at 0.3 μM)
COc1ccc(Oc2ccc(S(=O)(=O)N3CCc4c(ncnc4NC(=O)CC45CC6CC(CC(C6)C4)C5)C3)cc2)cc1 [Compound 175] | +++ (compound exhibited 50-75% inhibition at 0.3 μM)
O=C(CC12CC3CC(CC(C3)C1)C2)Nc1ncnc2c1CCN(S(=O)(=O)c1ccc(Oc3ccc(C(F)(F)F)cc3)cc1)C2 [Compound 177] | ++ (compound exhibited 25-50% inhibition at 0.3 μM)
O=C(CC12CC3CC(CC(C3)C1)C2)Nc1ncnc2c1CCN(S(=O)(=O)c1cc(C(F)(F)F)ccc1Cl)C2 [Compound 181] | ++ (compound exhibited 25-50% inhibition at 0.3 μM)
O=C(CC12CC3CC(CC(C3)C1)C2)Nc1ncnc2c1CCN(S(=O)(=O)Cc1cc(C(F)(F)F)cc(C(F)(F)F)c1)C2 [Compound 182] | +++ (compound exhibited 50-75% inhibition at 0.3 μM)
O=C(CC12CC3CC(CC(C3)C1)C2)Nc1ncnc2c1CCN(S(=O)(=O)Cc1ccc(C(F)(F)F)cc1)C2 [Compound 183] | ++ (compound exhibited 25-50% inhibition at 0.3 μM)
O=C(CC12CC3CC(CC(C3)C1)C2)Nc1ncnc2c1CCN(S(=O)(=O)Cc1ccc(F)cc1)C2 [Compound 184] | ++++ (compound exhibited 75% or greater inhibition at 0.3 μM)
O=C(CC12CC3CC(CC(C3)C1)C2)Nc1ncnc2c1CCN(S(=O)(=O)Cc1ccc(Cl)c(Cl)c1)C2 [Compound 185] | ++ (compound exhibited 25-50% inhibition at 0.3 μM)
O=C(CC12CC3CC(CC(C3)C1)C2)Nc1ncnc2c1CCN(S(=O)(=O)Cc1cc(Cl)cc(Cl)c1)C2 [Compound 186] | ++++ (compound exhibited 75% or greater inhibition at 0.3 μM)
O=C(CC12CC3CC(CC(C3)C1)C2)Nc1ncnc2c1CCN(S(=O)(=O)Cc1cccc(C(F)(F)F)c1)C2 [Compound 187] | ++++ (compound exhibited 75% or greater inhibition at 0.3 μM)
O=C(CC12CC3CC(CC(C3)C1)C2)Nc1ncnc2c1CCN(S(=O)(=O)Cc1ccc(Cl)cc1)C2 [Compound 189] | ++++ (compound exhibited 75% or greater inhibition at 0.3 μM)
O=C(CC12CC3CC(CC(C3)C1)C2)Nc1ncnc2c1CCN(S(=O)(=O)c1ccc(OC(F)F)cc1)C2 [Compound 190] | +++ (compound exhibited 50-75% inhibition at 0.3 μM)
O=C(CC12CC3CC(CC(C3)C1)C2)Nc1ncnc2c1CCN(S(=O)(=O)c1ccc(Oc3ccccc3)cc1)C2 [Compound 191] | + (compound exhibited 0-25% inhibition at 0.3 μM)

SMILES | IL-1β % inhibition
O=C(CC12CC3CC(CC(C3)C1)C2)Nc1ncnc2c1CCN(S(=O)(=O)c1ccccc1Cl)C2 [Compound 192] | +++ (compound exhibited 50-75% inhibition at 0.3 μM)
O=C(CC12CC3CC(CC(C3)C1)C2)Nc1ncnc2c1CCN(S(=O)(=O)c1ccc(F)c(Cl)c1)C2 [Compound 193] | + (compound exhibited 0-25% inhibition at 0.3 μM)
O=C(CC12CC3CC(CC(C3)C1)C2)Nc1ncnc2c1CCN(S(=O)(=O)c1ccccc1-c1ccccc1)C2 [Compound 194] | ++++ (compound exhibited 75% or greater inhibition at 0.3 μM)
O=C(CC12CC3CC(CC(C3)C1)C2)Nc1ncnc2c1CCN(S(=O)(=O)c1ccccc1C(F)(F)F)C2 [Compound 195] | + (compound exhibited 0-25% inhibition at 0.3 μM)
COc1ccc(S(=O)(=O)N2CCc3c(ncnc3NC(=O)CC34CC5CC(CC(C5)C3)C4)C2)c(OC)c1 [Compound 197] | ++++ (compound exhibited 75% or greater inhibition at 0.3 μM)
Cc1nn(C)c(C)c1S(=O)(=O)N1CCc2c(ncnc2NC(=O)CC23CC4CC(CC(C4)C2)C3)C1 [Compound 198] | + (compound exhibited 0-25% inhibition at 0.3 μM)
Cc1ccccc1S(=O)(=O)N1CCc2c(ncnc2NC(=O)CC23CC4CC(CC(C4)C2)C3)C1 [Compound 199] | ++++ (compound exhibited 75% or greater inhibition at 0.3 μM)
O=C(CC12CC3CC(CC(C3)C1)C2)Nc1ncnc2c1CCN(S(=O)(=O)c1ccc3c(c1)OCCO3)C2 [Compound 200] | + (compound exhibited 0-25% inhibition at 0.3 μM)
O=C(CC12CC3CC(CC(C3)C1)C2)Nc1ncnc2c1CCN(S(=O)(=O)c1ccc(Cl)cc1F)C2 [Compound 202] | ++ (compound exhibited 25-50% inhibition at 0.3 μM)
O=C(CC12CC3CC(CC(C3)C1)C2)Nc1ncnc2c1CCN(S(=O)(=O)c1cc(F)ccc1F)C2 [Compound 203] | + (compound exhibited 0-25% inhibition at 0.3 μM)
O=C(CC12CC3CC(CC(C3)C1)C2)Nc1ncnc2c1CCN(S(=O)(=O)c1cc(Cl)ccc1Cl)C2 [Compound 204] | + (compound exhibited 0-25% inhibition at 0.3 μM)
O=C(CC12CC3CC(CC(C3)C1)C2)Nc1ncnc2c1CCN(S(=O)(=O)c1cc(Cl)ccc1F)C2 [Compound 205] | + (compound exhibited 0-25% inhibition at 0.3 μM)
O=C(CC12CC3CC(CC(C3)C1)C2)Nc1ncnc2c1CCN(S(=O)(=O)c1c(F)cccc1F)C2 [Compound 206] | + (compound exhibited 0-25% inhibition at 0.3 μM)
Cc1ccc(S(=O)(=O)N2CCc3c(ncnc3NC(=O)CC34CC5CC(CC(C5)C3)C4)C2)cc1Cl [Compound 207] | +++ (compound exhibited 50-75% inhibition at 0.3 μM)
O=C(CC12CC3CC(CC(C3)C1)C2)Nc1ncnc2c1CCN(S(=O)(=O)c1cc(Cl)cc(Cl)c1)C2 [Compound 208] | +++ (compound exhibited 50-75% inhibition at 0.3 μM)
O=C(CC12CC3CC(CC(C3)C1)C2)Nc1ncnc2c1CCN(S(=O)(=O)c1ccc(F)cc1F)C2 [Compound 209] | ++++ (compound exhibited 75% or greater inhibition at 0.3 μM)
O=C(CC12CC3CC(CC(C3)C1)C2)Nc1ncnc2c1CCN(S(=O)(=O)c1c(Cl)cccc1Cl)C2 [Compound 210] | + (compound exhibited 0-25% inhibition at 0.3 μM)
O=C(CC12CC3CC(CC(C3)C1)C2)Nc1ncnc2c1CCN(S(=O)(=O)c1ccc(F)cc1Cl)C2 [Compound 211] | + (compound exhibited 0-25% inhibition at 0.3 μM)
